Test results taken from patent US9505792B2, “Forms of cidofovir” (Johnson Matthey Public Limited Company, priority 2011, dated 2016).

Assay: Occupational exposure assessment (full monograph) of the final product
Conditions: final crystalline cidofovir dihydrate product; remains within category band 5 (safebridge category 3)
Source text: A full monograph for the final crystalline cidofovir dihydrate product (compound 9) has been completed and it was confirmed that, with an OEL of 0.6 μgm^−3, the product remains within category band 5 (safebridge category 3).

Nc1ccn(C[C@@H](CO)OCP(=O)(O)O)c(=O)n1 [compound 9, cidofovir dihydrate]
OEL: 0.6 μgm^−3
